From US5137922A (priority 1989, dated 1992)
Read-outs that look alike come from different tables or passages of the source.

Key:
[1] = target: hemaglutinin (HA) (Influenza A virus (A/Sichuan/2/1987(H3N2)), UniProt H9XCU1); assay: Hemaglutinin activity of type A influenza virus after treatment (agglutination of red blood cells); type: biochemical, A/Sichuan/2/87(H3N2); details: FIG. 1, concentration dependence
type A influenza virus = assay: microbe, parasite or virus in culture; type: cell-based, A/Sichuan/2/87(H3N2)
type B influenza virus = assay: microbe, parasite or virus in culture; type: cell-based, B/USSA/100/83E; details: unidentified influenza virus, read-out: percentage of inhibition against infection; for inhibition at 4 µg/mL: 5 min; for inhibition at 1 µg/mL: 1 h
virus = assay: Electron microscope observation of virus suspension with EGCg; details: EGCg added to suspension of the virus
Source text: The […] (PTA) dyeing method was utilized.

neuraminidase (NA) = neuraminidase (NA) (Influenza B virus (B/USSR/100/83), UniProt P16205); type: biochemical, type B influenza virus, B/USSA/100/83E; details: control 11.0

Compound | hemaglutinin activity inhibiting power [1] | infection inhibiting power (type A influenza virus; FIG. 1, concentration dependence) | inhibition at 0.5 µg/mL (type A influenza virus; unidentified influenza virus, MDCK, 1 h, read-out: inhibition of infection) [%] | number of plaques (type A influenza virus; virus treated 1 hour, 0.5 μg/ml) | inhibition at 4 µg/mL (type B influenza virus) [%] | inhibition at 1 µg/mL (type B influenza virus) [%] | behavior of the virus under electron microscope (virus) | NA activity (neuraminidase (NA); 50 μg/ml) | NA activity (neuraminidase (NA); 100 μg/ml)
O=C(O[C@@H]1Cc2c(O)cc(O)cc2O[C@@H]1c1cc(O)c(O)c(O)c1)c1cc(O)c(O)c(O)c1 [EGCg, (-)epigallocatechin gallate] | depend on the concentration | depend on the concentration | 100 | zero | 100 | 100 | instantaneous formation of agglutinated lumps of the viruses | 8.00 | 5.10
O=C(O[C@@H]1Cc2c(O)cc(O)cc2O[C@@H]1c1cc(O)c(=O)c2c(O)c(O)cc([C@H]3Oc4cc(O)cc(O)c4C[C@H]3OC(=O)c3cc(O)c(O)c(O)c3)c2c1)c1cc(O)c(O)c(O)c1 [TF3, theaflavin digallate] | – | – | – | – | 100 | 100 | – | – | –
